Source: patent US9415017B2, “Bacterial ghosts for mediating innate immunity” (priority 2010, dated 2016)

Assays:
[1] = system: NO production in RAW 264.7 cells; experiment: nitrite assay (Griess reaction) for NO production; format: cell-based, murine; conditions: for impact on BG-induced NO-generation: NO after 20 hours
Experimental: RAW 264.7 cells were seeded in 96 well plates and were cultured for two days. […] Thereafter, the bacterial ghost suspensions were removed by twice washing with PBS and the cells were incubated for another 20 hours in the dark at 37° C. 5% CO2. In order to investigate the stimulatory impact of pure LPS (Fluka; E. coli serotype 055:B5), long-term incubation experiments with various LPS concentrations were conducted for 20 hours.
As an indicater of NO production, nitrite concentration was measured in the supernatant of the macrophages by use of the Griess reaction (Green et al., 1982 Anal Biochem. 126(1): p. 131-8). In short, 100 μl of each supernatant was mixed with 90 μl 1% sulphanilamide (Fluka) in 5% H3PO4 and 90 μl of N-(1-Naphthyl) ethylene diamine dihydrochloride in water. The absorbance was determined at 550 nm with an ELISA reader (Tecan Sunrise).

RAW 264.7 cells = experiment: neutral red cytotoxicity assay; format: cell-based, murine
Excerpt: The neutral red assay was used to test the impact of empty or RV-loaded BGs as well as the chemical per se on the viability of RAW 264.7 cells. Neutral red (3-amino-m-dimethylamino-2methyl-phenazine hydrochloride) selectivly accumulates in lysosomes of living cells (Repetto et al. 2008. Nat Protoc, 2008. 3(7): p. 1125-31) and provides therefore a quantitative assessment of viablitity.
Individual wells of 96-well plates were inoculated with 1.25×10^5 cells and were allowed to attach overnight. Macrophages were treated with 200 μl medium containing RV-loaded and unloaded BGs (all resuspended in sf-medium) in different BG to cell ratios (10, 100, 1000) or with RV alone for either 20 min followed by a 20 hour recovery period or 24 hours. The same conditions were performed with two RV-concentrations (15 μM and 30 μM). Triton X-100 (0.01%) served as a positive control and cells treated with test medium represent the negative control. After treatment, the cells were washed twice with PBS and were incubated either with culture medium for 20 hours or directly with 100 μl of NR (80 μg/ml final concentration) for another two hours (37° C.; 5% CO2). Thereafter, the dye was discarded and the wells were washed two times with PBS. Extraction of the dye was accomplished by addition of 100 μl of the acidic destaining solution (1 ml acetic acid, 73 ml 96% ethanol and 26 ml deionized water). The plates were shaken for 10 min and the developed color was measured by a plate reader (Dynex OpsysMR) at 570 nm (reference wavelength 690 nm).

Oc1ccc(C=Cc2cc(O)cc(O)c2)cc1 [RV, resveratrol]
impact on BG-induced NO-generation ([1]; 0.3 μM and 0.3 μM RV with empty BGs at ratio 500, 20 min): no impact | impact on BG-induced NO-generation ([1]; 30 μM RV with empty BGs at ratio 500, 20 min): Statistically significant difference | reduction of nitrite compared to empty BGs alone ([1]; BG to cell ratio of 100, RV-loaded ghosts or 3 μM RV with empty BGs): no effect | reduction of NO compared to empty BGs alone ([1]; MOI of 1000, RV-ghosts or 3 μM RV coevally with empty BGs): reduction | cell viability (RAW 264.7 cells; 15 μM RV): no impact at all | cell viability (RAW 264.7 cells; 30 μM RV): 81.23 ± 10.6% | loss of viability (RAW 264.7 cells; 30 μM RV): 20% | cell viability (RAW 264.7 cells; short-term coincubation (20 min, measured after 20 hours)): no effects
